Assay results: publication PMC3130825 (Journal of medicinal chemistry, 2010)
“And” between values parts separate entries of the source, which are not always exact repeats. Equal entries are not always repeated.

Legend:
[1] = test system: nicotine-induced antinociception (tail-flick); test: Block of nicotine-induced antinociception, tail-flick test; type: in vivo, mice; details: for ED50: Mus musculus, read-out: AD50 Tail-flick; for potency relative to 2 in the tail-flick assay: mouse, in vivo
[2] = test system: nicotine-induced antinociception (hot-plate); test: Block of nicotine-induced antinociception, hot-plate test; parameters: species or system mice; details: mouse, in vivo
hNET = hNET (Homo sapiens, UniProt P23975); test: [3H]norepinephrine uptake inhibition in HEK293 cells; type: cell-based; details: for potency relative to 2 as NE uptake inhibitor: better than 2
Chain of hNET (P23975 whole entry): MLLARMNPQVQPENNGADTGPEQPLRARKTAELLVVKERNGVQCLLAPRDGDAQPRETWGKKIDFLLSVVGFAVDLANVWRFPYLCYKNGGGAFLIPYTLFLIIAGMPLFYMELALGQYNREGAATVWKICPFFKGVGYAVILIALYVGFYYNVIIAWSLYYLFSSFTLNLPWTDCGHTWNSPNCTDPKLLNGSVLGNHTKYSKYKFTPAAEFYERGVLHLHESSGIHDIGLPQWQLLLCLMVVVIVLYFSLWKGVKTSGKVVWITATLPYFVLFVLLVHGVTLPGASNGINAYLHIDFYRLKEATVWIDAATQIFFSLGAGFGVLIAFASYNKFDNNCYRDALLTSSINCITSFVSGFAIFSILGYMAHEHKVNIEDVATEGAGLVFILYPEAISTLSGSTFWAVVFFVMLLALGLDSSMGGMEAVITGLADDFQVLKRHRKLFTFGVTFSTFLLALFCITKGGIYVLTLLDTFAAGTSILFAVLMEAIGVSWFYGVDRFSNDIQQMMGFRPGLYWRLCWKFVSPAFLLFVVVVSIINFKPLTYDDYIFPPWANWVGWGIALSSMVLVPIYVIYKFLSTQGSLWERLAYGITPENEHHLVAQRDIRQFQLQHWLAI

[3] = test system: nicotine-induced hypothermia; test: Block of nicotine-induced hypothermia; parameters: species or system mice; details: mouse, in vivo
hSERT = hSERT (Homo sapiens, UniProt P31645); type: cell-based
Chain of hSERT (P31645 whole entry): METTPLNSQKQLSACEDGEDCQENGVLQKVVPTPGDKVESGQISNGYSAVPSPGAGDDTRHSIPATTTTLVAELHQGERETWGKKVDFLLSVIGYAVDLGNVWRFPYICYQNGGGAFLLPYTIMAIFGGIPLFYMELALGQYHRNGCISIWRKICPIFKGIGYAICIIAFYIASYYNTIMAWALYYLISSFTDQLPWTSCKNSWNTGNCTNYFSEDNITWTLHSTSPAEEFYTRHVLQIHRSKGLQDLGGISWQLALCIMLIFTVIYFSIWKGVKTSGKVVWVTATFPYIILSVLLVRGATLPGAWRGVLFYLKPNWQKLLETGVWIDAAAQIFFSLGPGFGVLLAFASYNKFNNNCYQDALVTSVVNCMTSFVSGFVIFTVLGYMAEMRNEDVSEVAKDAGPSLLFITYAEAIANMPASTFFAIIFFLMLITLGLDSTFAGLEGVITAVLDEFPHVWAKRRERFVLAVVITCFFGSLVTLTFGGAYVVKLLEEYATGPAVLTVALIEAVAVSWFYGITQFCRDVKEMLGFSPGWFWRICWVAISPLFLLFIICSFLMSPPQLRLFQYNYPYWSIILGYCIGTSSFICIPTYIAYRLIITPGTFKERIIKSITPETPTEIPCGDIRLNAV

locomotor activity = details: cited from earlier work
[4] = test system: CB-1 cannabinoid receptor; details: cited from earlier work
nicotine-induced CPP = test: Block of development of nicotine conditioned place preference; parameters: species or system mice; details: mouse, in vivo
[5] = cited from earlier work
α3β4*-nAChR = α3β4*-nAChR (Homo sapiens, UniProt P30926+P32297); test: 86Rb+ efflux assay, SH-SY5Y cells; type: cell-based
Chain of α3β4*-nAChR (P32297 32-505): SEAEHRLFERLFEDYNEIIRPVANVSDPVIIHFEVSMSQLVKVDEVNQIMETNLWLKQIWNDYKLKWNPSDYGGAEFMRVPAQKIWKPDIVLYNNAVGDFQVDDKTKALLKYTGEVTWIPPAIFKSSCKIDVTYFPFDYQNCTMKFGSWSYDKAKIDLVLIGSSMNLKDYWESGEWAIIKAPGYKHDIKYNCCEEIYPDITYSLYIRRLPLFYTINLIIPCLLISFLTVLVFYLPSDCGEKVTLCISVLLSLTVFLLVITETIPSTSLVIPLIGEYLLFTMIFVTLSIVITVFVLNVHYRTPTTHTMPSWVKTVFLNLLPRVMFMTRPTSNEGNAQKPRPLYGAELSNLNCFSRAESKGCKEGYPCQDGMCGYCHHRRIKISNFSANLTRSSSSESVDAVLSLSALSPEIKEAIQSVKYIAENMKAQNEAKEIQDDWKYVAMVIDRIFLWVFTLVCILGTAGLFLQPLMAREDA
Chain of α3β4*-nAChR (P30926 22-498): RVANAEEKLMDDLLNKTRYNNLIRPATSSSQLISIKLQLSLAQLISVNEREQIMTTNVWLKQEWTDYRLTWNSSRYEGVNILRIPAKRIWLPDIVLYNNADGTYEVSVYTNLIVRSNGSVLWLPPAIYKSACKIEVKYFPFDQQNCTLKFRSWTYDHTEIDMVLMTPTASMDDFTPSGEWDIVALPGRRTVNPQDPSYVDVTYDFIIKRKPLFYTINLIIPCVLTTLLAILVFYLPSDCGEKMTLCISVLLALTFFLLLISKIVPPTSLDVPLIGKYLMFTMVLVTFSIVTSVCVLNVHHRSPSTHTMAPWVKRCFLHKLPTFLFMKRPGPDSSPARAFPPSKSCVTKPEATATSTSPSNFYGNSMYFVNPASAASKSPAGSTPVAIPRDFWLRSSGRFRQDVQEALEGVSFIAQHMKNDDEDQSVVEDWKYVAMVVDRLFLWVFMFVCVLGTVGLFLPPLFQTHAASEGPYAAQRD

[6] = test system: nicotine-induced locomotor effect; test: Block of nicotine effect on locomotor activity; parameters: species or system mice; details: mouse, in vivo

With `CC(NC(C)(C)C)C(=O)c1cccc(Cl)c1` (centres unmarked) [Compound 2, bupropion, reference compound] as the compound, how does the ED50 [1] read?
Its ED50 is 1.2 mg/kg.

Which ED50 [1] does the source give for `Cc1ccc([C@H]2C[C@@H]3CC[C@H]([C@H]2C(=O)OC(C)C)N3C)cc1` [Compound 4a, 3β-(4-Methylphenyl)tropane-2β-carboxylic acid isopropyl ester] here?
The ED50 was 0.015 mg/kg.

With `Cc1ccc([C@H]2C[C@@H]3CC[C@H]([C@H]2C(=O)OC2CCC2)N3C)cc1` [Compound 4b] as the compound, how does the ED50 [1] read?
The ED50 was 0.28 mg/kg.

For `CCc1cc([C@H]2[C@@H](c3ccc(C)cc3)C[C@@H]3CC[C@H]2N3C)on1` [Compound 4c, 3β-(4-methylphenyl)-2β-(3′-ethylisoxazol-5′-yl)tropane], which “potency relative to 2 in the hot-plate assay” value [2] is on record?
The value was 9 fold.

And the “potency relative to 2 as NE uptake inhibitor” value (hNET)?
The value was ~ 170 fold.

And the “potency relative to 2 in the hypothermia (body temperature) test” value [3]?
Its value is “marginally more potent”.

And the ED50 [1]?
The ED50 was 0.008 mg/kg.

And the “potency relative to 2 in the tail-flick assay” value [1]?
Its value is 150 fold.

And the “potency relative to 2 as 5HT uptake inhibitor” value (hSERT)?
The value was “no less than 5 fold”.

Which results are given for `Cc1ccc([C@H]2C[C@@H]3CC[C@H]([C@H]2c2cc(-c4ccc(Cl)cc4)no2)N3C)cc1` [Compound 4d]?
locomotor activity in rats (locomotor activity): did not show locomotor activity; ED50 [1]: > 20 mg/kg; modulation of the CB-1 cannabinoid receptor [4]: positive allosteric modulator; potency relative to 2 in the CPP assay (nicotine-induced CPP): 27 fold; brain levels in in vivo binding studies [5]: appreciable brain levels were achieved

With `COc1ccc(-c2cc([C@H]3[C@@H](c4ccc(Cl)cc4)C[C@@H]4CC[C@H]3N4C)on2)cc1` [Compound 4e] as the compound, how does the “preference for functional inhibition of α3β4*- over α4β4-nAChR” value (α3β4*-nAChR) read?
Its value is > 56 fold.

And the ED50 [1]?
Its ED50 is 0.018 mg/kg.

For `COC(=O)[C@H]1[C@@H](c2ccc(Cl)c(C)c2)C[C@@H]2CC[C@H]1N2C` [Compound 4g, 3β-(4-chlorophenyl-3-methyl)tropane-2β-carboxylic acid methyl ester], which “potency relative to 2 in the hot-plate assay” value [2] is on record?
The value was 40 fold.

And the “potency relative to 2 as NE uptake inhibitor” value (hNET)?
The value was ~ 2000 fold.

What about the “potency relative to 2 in the hypothermia (body temperature) test” value [3] of the same compound?
Its value is 65 fold.

And the ED50 [1]?
Its ED50 is 0.21 mg/kg.

And the “potency relative to 2 in the tail-flick assay” value [1]?
Its value is 6 fold.

And the “potency relative to 2 in the locomotor test” value [6]?
Its value is 44 fold.

Which ED50 [1] does the source give for `COC(=O)[C@H]1[C@@H](c2ccc(Cl)c(C)c2)C[C@@H]2CC[C@H]1N2` [Compound 4h, 3β-(4-chloro-3-methylphenyl)nortropane-2β-carboxylic acid methyl ester] here?
Its ED50 is 0.003 mg/kg.

Which results are given for `Cc1cc([C@H]2[C@@H](c3ccc(Cl)c(C)c3)C[C@@H]3CC[C@H]2N3C)on1` [Compound 4i, 3β-(4-chloro-3-methylphenyl)-2β-(3′-methylisoxazol-5′-yl)tropane]?
preference for functional inhibition of α3β4*- over α4β2-nAChR (α3β4*-nAChR): 11 fold and 10–13 fold; ED50 [1]: 0.009 mg/kg

With `Cc1cc([C@H]2C[C@@H]3CC[C@H]([C@H]2c2cc(-c4ccccc4)no2)N3C)ccc1Cl` [Compound 4j] as the compound, how does the “preference for NE over DA uptake inhibition” value (hNET) read?
The value was “comparable”.

What about the “preference for functional inhibition of α3β4*- over α4β2-nAChR” value (α3β4*-nAChR) of the same compound?
Its value is 10–13 fold.

What about the ED50 [1] of the same compound?
Its ED50 is 2.5 mg/kg.

For `COC(=O)[C@@H]1[C@H]2CC[C@@H](C[C@H]1c1ccc(Cl)c(C)c1)N2C` [Compound 4k, 3α-(4-Chloro-3-methylphenyl)tropane-2β-carboxylic acid Methyl Ester], which ED50 [1] is on record?
Its ED50 is 0.026 mg/kg.
